Reference: patent US20090197955A1, “METHODS OF IMPROVING DHA DEPOSITION AND RELATED FUNCTION AND/OR DEVELOPMENT” (Monsanto Company, priority 2008, published 2009)

Experiment: Fatty acid composition of pig tissues (ham, loin, belly, skin) after feeding SDA ethyl ester diets, 35 day study
Type: in vivo, pigs
Settings: 35 days
Method: A 35 day study was conducted to determine whether pigs fed a diet containing SDA could enhance tissues with improved fatty acid profiles including increased levels of SDA, EPA, and DHA.
Four test diets (Treatment 2, 3, 4, and 5) with SDA ethyl ester substituted for corn oil to provide 0.2, 0.4, 0.6 and 0.8% (w/w SDA active ingredient, as-is basis) were fed ad libitum to one pen of four pigs throughout the 35-day test period Table 4). All diets were fed in meal form. Treatment 6 was fed the same diet as Treatment 5, but for a duration of only 21 days.
All pigs were individually weighed at initiation of the acclimation and test period, and immediately prior to slaughter. Feed consumption per pen was recorded. Upon completion of the feeding period, pigs were slaughtered for tissue collection and carcass evaluation. Pigs were slaughtered using standard industry practices (electrical stunning, exsanguinations, scalding, dehairing and evisceration). Live weights prior to slaughter and hot carcass weights were recorded. The left side of each carcass was fabricated and samples were obtained from the loin (longissimus muscle), ham (semimembranosus muscle) and belly (a section from the center of the belly) for sensory evaluation, fatty acid, and proximate analysis. Prior to removing the sample for sensory and fatty and proximate analysis from the belly the firmness of the belly was evaluated using a flop test. At 24 hr postmortem fat thickness (10th rib), loin eye area (10th rib), visual color, firmness and marbling, Minolta color (L*a*b*), pH, and drip loss were measured.
In order to evaluate the fatty acid composition of pig tissues (loin, ham, skin, and belly), samples were stored at −80° C. until evaluation. After thawing, ˜22 g of fresh pig tissue was chopped into small pieces and thoroughly mixed before 10 g was sub sampled and lyophilized. Lyophilized samples were ground in 30 ml Sarstedt tubes with two ball bearings using a Mega Grinder. Ground samples (loin and ham: 50 mg; skin: 100 mg; belly: 150 mg; diet: 500 mg) were directly methylated with sulfuric acid in methanol (loin and ham: 1 mL; skin: 3 mL; belly: 10 mL; diet: 1.5 mL) sealed in the presence of butylated hydroxytoluene (50 mg BHT in 100 ml reagent) in reflux conditions of 90° C. Resultant fatty acid methyl esters (FAME's) were separated by capillary gas chromatography (GC) and detected by flame ionization detector (FID). The column used was a Supelco Omegawax 250 capillary column with dimensions of 30 m×0.25 mm×0.25 μm film thickness. The run time was 32 minutes. Peaks were identified based on their relative retention time compared to a FAME reference mixture. Quantification was achieved by using an internal standard (c15:0 triacylglyceride (TAG) for pig tissue samples and c17:0 TAG for diet samples). Results are reported as FA g/100 g fat with theoretical response correction.
For Table 6 below, each value represents g/100 g total fatty acids a mean of 4 samples (1 sample from each of 4 pigs) per treatment.

CC/C=C\C/C=C\C/C=C\C/C=C\CCCCC(=O)O [SDA, stearidonic acid]
12:0, ham (0.2% SDA feed): 0.06 g FA per 100 g fat
14:0, ham (0.2% SDA feed): 1.06 g FA per 100 g fat
16:0, ham (0.2% SDA feed): 21.24 g FA per 100 g fat
16:1 n-7, ham (0.2% SDA feed): 3.58 g FA per 100 g fat
16:1 n-9, ham (0.2% SDA feed): 0.26 g FA per 100 g fat
18:0, ham (0.2% SDA feed): 10.13 g FA per 100 g fat
18:1 n-7, ham (0.2% SDA feed): 4.55 g FA per 100 g fat
18:1 n-9, ham (0.2% SDA feed): 40.91 g FA per 100 g fat
18:2 n-6 (LA), ham (0.2% SDA feed): 8.86 g FA per 100 g fat
18:3 n-3 (ALA), ham (0.2% SDA feed): 0.20 g FA per 100 g fat
18:3 n-6 (GLA), ham (0.2% SDA feed): 0.08 g FA per 100 g fat
18:4 n-3 (SDA), ham (0.2% SDA feed): 0.03 g FA per 100 g fat
20:0, ham (0.2% SDA feed): 0.16 g FA per 100 g fat
20:1 n-7, ham (0.2% SDA feed): 0.04 g FA per 100 g fat
20:1 n-9, ham (0.2% SDA feed): 0.69 g FA per 100 g fat
20:1 n-11, ham (0.2% SDA feed): 0.04 g FA per 100 g fat
20:2 n-6, ham (0.2% SDA feed): 0.38 g FA per 100 g fat
20:3 n-3, ham (0.2% SDA feed): 0.03 g FA per 100 g fat
20:3 n-6 (DGLA), ham (0.2% SDA feed): 0.29 g FA per 100 g fat
20:4 n-3 (ETA), ham (0.2% SDA feed): 0.09 g FA per 100 g fat
20:4 n-6 (AA), ham (0.2% SDA feed): 1.96 g FA per 100 g fat
20:5 n-3 (EPA), ham (0.2% SDA feed): 0.17 g FA per 100 g fat
22:0, ham (0.2% SDA feed): 0.03 g FA per 100 g fat
22:1 n-9, ham (0.2% SDA feed): 0.00 g FA per 100 g fat
22:1 n-11, ham (0.2% SDA feed): 0.00 g FA per 100 g fat
22:1 n-13, ham (0.2% SDA feed): 0.00 g FA per 100 g fat
22:2 n-7, ham (0.2% SDA feed): 0.00 g FA per 100 g fat
22:3 n-6, ham (0.2% SDA feed): 0.24 g FA per 100 g fat
22:5 n-3 (DPA), ham (0.2% SDA feed): 0.39 g FA per 100 g fat
22:6 n-3 (DHA), ham (0.2% SDA feed): 0.09 g FA per 100 g fat
24:1 n-9, ham (0.2% SDA feed): 0.04 g FA per 100 g fat
Total PUFA, ham (0.2% SDA feed): 12.82 g FA per 100 g fat
Total monoenes, ham (0.2% SDA feed): 50.11 g FA per 100 g fat
Total n-3, ham (0.2% SDA feed): 1.01 g FA per 100 g fat
Total n-6, ham (0.2% SDA feed): 11.81 g FA per 100 g fat
Total saturates, ham (0.2% SDA feed): 32.68 g FA per 100 g fat
n-6/n-3, ham (0.2% SDA feed): 11.69
DHA enrichment in ham (0.2-0.8% SDA): enriched in ham in a dose dependent manner
DPA enrichment in loin and ham tissues (0.2-0.8% SDA): enriched in loin and ham tissues in a dose dependent manner
SDA, ETA and EPA enrichment in belly, loin, ham and skin tissues (0.2-0.8% SDA): enriched in belly, loin, ham, and skin tissues in a dose dependent manner
12:0, ham (0.4% SDA feed): 0.06 g FA per 100 g fat
14:0, ham (0.4% SDA feed): 1.10 g FA per 100 g fat
16:0, ham (0.4% SDA feed): 21.45 g FA per 100 g fat
16:1 n-7, ham (0.4% SDA feed): 3.45 g FA per 100 g fat
16:1 n-9, ham (0.4% SDA feed): 0.25 g FA per 100 g fat
18:0, ham (0.4% SDA feed): 10.74 g FA per 100 g fat
18:1 n-7, ham (0.4% SDA feed): 4.28 g FA per 100 g fat
18:1 n-9, ham (0.4% SDA feed): 39.94 g FA per 100 g fat
18:2 n-6 (LA), ham (0.4% SDA feed): 9.18 g FA per 100 g fat
18:3 n-3 (ALA), ham (0.4% SDA feed): 0.26 g FA per 100 g fat
18:3 n-6 (GLA), ham (0.4% SDA feed): 0.09 g FA per 100 g fat
18:4 n-3 (SDA), ham (0.4% SDA feed): 0.03 g FA per 100 g fat
20:0, ham (0.4% SDA feed): 0.16 g FA per 100 g fat
20:1 n-7, ham (0.4% SDA feed): 0.04 g FA per 100 g fat
20:1 n-9, ham (0.4% SDA feed): 0.66 g FA per 100 g fat
20:1 n-11, ham (0.4% SDA feed): 0.04 g FA per 100 g fat
20:2 n-6, ham (0.4% SDA feed): 0.36 g FA per 100 g fat
20:3 n-3, ham (0.4% SDA feed): 0.04 g FA per 100 g fat
20:3 n-6 (DGLA), ham (0.4% SDA feed): 0.32 g FA per 100 g fat
20:4 n-3 (ETA), ham (0.4% SDA feed): 0.14 g FA per 100 g fat
20:4 n-6 (AA), ham (0.4% SDA feed): 1.90 g FA per 100 g fat
20:5 n-3 (EPA), ham (0.4% SDA feed): 0.23 g FA per 100 g fat
22:0, ham (0.4% SDA feed): 0.04 g FA per 100 g fat
22:1 n-9, ham (0.4% SDA feed): 0.01 g FA per 100 g fat
22:1 n-11, ham (0.4% SDA feed): 0.00 g FA per 100 g fat
22:1 n-13, ham (0.4% SDA feed): 0.00 g FA per 100 g fat
22:2 n-7, ham (0.4% SDA feed): 0.00 g FA per 100 g fat
22:3 n-6, ham (0.4% SDA feed): 0.26 g FA per 100 g fat
22:5 n-3 (DPA), ham (0.4% SDA feed): 0.44 g FA per 100 g fat
22:6 n-3 (DHA), ham (0.4% SDA feed): 0.08 g FA per 100 g fat
